Test results as given in the CheMixHub drug solubility set.

Experiment: xn = mol fraction of the nth substance listed, in the solute-free solvent

O=C(O)CC(O)C(=O)O (stereo unspecified) + C1CCOC1 + CCOC(C)=O
solubility (g/100 g solution)
Conditions	278.15 K	283.15 K	288.15 K	293.15 K	298.15 K	303.15 K	308.15 K	313.15 K	318.15 K	323.15 K
x2 = 0.234	9.32	10.1	11	12	13.2	14.4	15.8	17.2	18.6	20.4
x2 = 0.3437	13.6	14.7	15.9	17.2	18.7	20.4	22.1	24	26.1	28.7
x2 = 0.4489	19.3	20.5	21.8	23.2	24.7	26.3	27.9	29.9	31.9	34.2
x2 = 0.55	24.6	26	27.6	29	30.8	32.7	34.6	36.6	39.2	41.8
x2 = 0.647	27.6	28.9	30.5	32.2	34.2	36.3	38.4	40.8	43.5	46.4
x2 = 0.7403	30.1	31.8	33.3	34.9	36.9	38.8	40.9	43.3	46	48.7
x2 = 0.8302	34.8	36	37.7	39	40.7	42.6	44.4	46.4	48.7	51.4

OCCN(CCO)c1nc(N2CCCCC2)c2nc(N(CCO)CCO)nc(N3CCCCC3)c2n1 + CO + O
solubility (g/100 g solution)
Conditions	293.15 K	298.15 K	303.15 K	308.15 K	313.15 K	318.15 K	323.15 K	328.15 K
x2 = 0.3	0.0465	0.0712	0.121	0.178	0.281	0.39	0.543	0.757
x2 = 0.4	0.197	0.312	0.48	0.676	1.01	1.48	2.27	3.26
x2 = 0.5	0.513	0.826	1.16	1.64	2.54	3.82	6.13	9.01
x2 = 0.6	1.12	1.6	2.21	3.21	4.77	7.29	11.6	18
x2 = 0.7	1.8	2.43	3.45	5.11	7.41	11.5	17.4	26.3
x2 = 0.8	2.43	3.31	4.57	6.51	9.53	14.1	20.9	29.2
x2 = 0.9	2.81	3.85	5.46	7.53	10.9	15.8	22.7	31.9
